In the CheMixHub viscosity set:

Experiment: xn = mol fraction of the nth substance listed

C1COCCO1 + CO
Details	viscosity [mPa·s]
293.15 K, 101 kPa, x2 = 0.2465	0.9992
293.15 K, 101 kPa, x2 = 0.3957	0.8686
293.15 K, 101 kPa, x2 = 0.5458	0.7639
293.15 K, 101 kPa, x2 = 0.6558	0.6972
293.15 K, 101 kPa, x2 = 0.7331	0.6579
293.15 K, 101 kPa, x2 = 0.8062	0.6268
293.15 K, 101 kPa, x2 = 0.8648	0.6069
293.15 K, 101 kPa, x2 = 0.9198	0.5935
293.15 K, 101 kPa, x2 = 0.9635	0.5877
293.15 K, 101.3 kPa, x2 = 0.1975	1.045
293.15 K, 101.3 kPa, x2 = 0.3447	0.9049
293.15 K, 101.3 kPa, x2 = 0.4743	0.8065
293.15 K, 101.3 kPa, x2 = 0.5836	0.7327
293.15 K, 101.3 kPa, x2 = 0.6782	0.6805
293.15 K, 101.3 kPa, x2 = 0.7588	0.6441
293.15 K, 101.3 kPa, x2 = 0.8312	0.6135
293.15 K, 101.3 kPa, x2 = 0.8936	0.5998
293.15 K, 101.3 kPa, x2 = 0.9503	0.59
298.15 K, 101 kPa, x1 = 0.3	0.6148
298.15 K, 101 kPa, x2 = 0.8474	0.5684
298.15 K, 101 kPa, x2 = 0.9275	0.5488
298.15 K, 101 kPa, x2 = 0.9636	0.5589
298.15 K, 101.3 kPa, x2 = 0.1975	0.9612
298.15 K, 101.3 kPa, x2 = 0.3447	0.8454
298.15 K, 101.3 kPa, x2 = 0.4743	0.7506
298.15 K, 101.3 kPa, x2 = 0.5836	0.6825
298.15 K, 101.3 kPa, x2 = 0.6782	0.6352
298.15 K, 101.3 kPa, x2 = 0.7588	0.6047
298.15 K, 101.3 kPa, x2 = 0.8312	0.578
298.15 K, 101.3 kPa, x2 = 0.9503	0.5443
303.15 K, 101 kPa, x2 = 0.2218	0.8759
303.15 K, 101 kPa, x2 = 0.4075	0.7425
303.15 K, 101 kPa, x2 = 0.5478	0.6573
303.15 K, 101 kPa, x2 = 0.6544	0.6056
303.15 K, 101 kPa, x2 = 0.7387	0.5694
303.15 K, 101 kPa, x2 = 0.8089	0.5455
303.15 K, 101 kPa, x2 = 0.8164	0.5434
303.15 K, 101 kPa, x2 = 0.8671	0.5288
303.15 K, 101 kPa, x2 = 0.9617	0.5105
303.15 K, 101.3 kPa, x2 = 0.1975	0.8931
303.15 K, 101.3 kPa, x2 = 0.3447	0.778
303.15 K, 101.3 kPa, x2 = 0.4743	0.6981
303.15 K, 101.3 kPa, x2 = 0.5836	0.6349
303.15 K, 101.3 kPa, x2 = 0.6782	0.5919
303.15 K, 101.3 kPa, x2 = 0.7588	0.5568
303.15 K, 101.3 kPa, x2 = 0.8312	0.5316
303.15 K, 101.3 kPa, x2 = 0.8936	0.5157
303.15 K, 101.3 kPa, x2 = 0.9503	0.5063
303.15 K, 101.33 kPa, x2 = 0.225	0.877
303.15 K, 101.33 kPa, x2 = 0.4115	0.733
303.15 K, 101.33 kPa, x2 = 0.662	0.603
303.15 K, 101.33 kPa, x2 = 0.923	0.52
308.15 K, 101.3 kPa, x2 = 0.1975	0.831
308.15 K, 101.3 kPa, x2 = 0.3447	0.7262
308.15 K, 101.3 kPa, x2 = 0.4743	0.6503
308.15 K, 101.3 kPa, x2 = 0.5836	0.593
308.15 K, 101.3 kPa, x2 = 0.6782	0.5507
308.15 K, 101.3 kPa, x2 = 0.7588	0.52
308.15 K, 101.3 kPa, x2 = 0.8312	0.497
308.15 K, 101.3 kPa, x2 = 0.9503	0.4725
313.15 K, 101 kPa, x2 = 0.2218	0.7572
313.15 K, 101 kPa, x2 = 0.2465	0.7401
313.15 K, 101 kPa, x2 = 0.4075	0.6436
313.15 K, 101 kPa, x2 = 0.5458	0.5763
313.15 K, 101 kPa, x2 = 0.6544	0.5294
313.15 K, 101 kPa, x2 = 0.7387	0.499
313.15 K, 101 kPa, x2 = 0.8089	0.4782
313.15 K, 101 kPa, x2 = 0.8671	0.4627
313.15 K, 101 kPa, x2 = 0.9635	0.446
323.15 K, 101 kPa, x2 = 0.2465	0.6508
323.15 K, 101 kPa, x2 = 0.3957	0.5742
323.15 K, 101 kPa, x2 = 0.5458	0.5093
323.15 K, 101 kPa, x2 = 0.6558	0.4701
323.15 K, 101 kPa, x2 = 0.7331	0.4449
323.15 K, 101 kPa, x2 = 0.8062	0.4249
323.15 K, 101 kPa, x2 = 0.8648	0.4107
323.15 K, 101 kPa, x2 = 0.9198	0.4003
323.15 K, 101 kPa, x2 = 0.9635	0.3949

O=C1CCCO1 + COC(=O)OC
viscosity [mPa·s]
Details	293.15 K	298.15 K	303.15 K	308.15 K	313.15 K	318.15 K	323.15 K
101 kPa, x2 = 0.1013	1.635	1.52	1.413	1.316	1.231	1.154	1.083
101 kPa, x2 = 0.2013	1.437	1.331	1.237	1.154	1.08	1.013	0.953
101 kPa, x2 = 0.3001	1.277	1.186	1.104	1.033	0.968	0.91	0.857
101 kPa, x2 = 0.4006	1.138	1.058	0.987	0.923	0.867	0.816	0.77
101 kPa, x2 = 0.5	1.018	0.95	0.889	0.836	0.786	0.742	0.701
101 kPa, x2 = 0.5986	0.918	0.856	0.802	0.753	0.709	0.669	0.634
101 kPa, x2 = 0.6999	0.83	0.776	0.728	0.685	0.647	0.612	0.58
101 kPa, x2 = 0.7989	0.75	0.702	0.659	0.62	0.585	0.553	0.524
101 kPa, x2 = 0.8995	0.685	0.644	0.605	0.57	0.538	0.51	0.483
101.3 kPa, x2 = 0.1282	–	1.22	–	–	–	–	–
101.3 kPa, x2 = 0.1724	–	1.14	–	–	–	–	–
101.3 kPa, x2 = 0.2631	–	0.99	–	–	–	–	–
101.3 kPa, x2 = 0.4545	–	0.85	–	–	–	–	–
101.3 kPa, x2 = 0.5555	–	0.83	–	–	–	–	–
101.3 kPa, x2 = 0.6603	–	0.76	–	–	–	–	–
101.3 kPa, x2 = 0.7792	–	0.78	–	–	–	–	–
101.3 kPa, x2 = 0.8823	–	0.67	–	–	–	–	–

Brc1ccccc1 + COC(C)=O
viscosity [mPa·s], 101 kPa
Details	298.15 K	308.15 K
x2 = 0.0439	0.978	0.915
x2 = 0.1485	0.848	0.811
x2 = 0.2482	0.747	0.725
x2 = 0.3503	0.662	0.649
x2 = 0.4378	0.602	0.592
x2 = 0.4901	0.57	0.561
x2 = 0.5493	0.538	0.529
x2 = 0.6489	0.492	0.48
x2 = 0.7491	0.453	0.437
x2 = 0.8491	0.421	0.399
x2 = 0.9433	0.397	0.368

Brc1ccccc1 + COCCO
303.15 K, 101.33 kPa
Details	viscosity [mPa·s]
x2 = 0.1188	0.997
x2 = 0.219	1.024
x2 = 0.3173	1.06
x2 = 0.4336	1.114
x2 = 0.4974	1.147
x2 = 0.5621	1.179
x2 = 0.7198	1.255
x2 = 0.8018	1.296
x2 = 0.9254	1.352

Nc1cccc(Cl)c1Cl + COCCO
313.15 K, 101 kPa
Details	viscosity [mPa·s]
x1 = 0.08697	1.48
x1 = 0.1819	1.74
x1 = 0.2858	2.04
x1 = 0.4001	2.33
x1 = 0.5264	2.63
x1 = 0.6667	2.96
x1 = 0.8236	3.25

Brc1ccccc1 + COc1ccccc1
viscosity [mPa·s], 101 kPa
Details	x2 = 0.0996	x2 = 0.1949	x2 = 0.2927	x2 = 0.3925	x2 = 0.4935	x2 = 0.5913	x2 = 0.6919	x2 = 0.7952	x2 = 0.8992
298.15 K	1.084	1.079	1.072	1.059	1.052	1.042	1.032	1.024	1.013
303.15 K	1.017	1.011	1.005	0.9905	0.9826	0.9704	0.9621	0.952	0.9439
308.15 K	0.957	0.9479	0.9392	0.9236	0.9158	0.9055	0.8959	0.8857	0.8768
313.15 K	0.8974	0.8903	0.8784	0.8659	0.8558	0.8442	0.8346	0.8247	0.8135

FB(F)F + COc1ccccc1
viscosity [mPa·s], 101 kPa
Details	293.15 K	298.15 K	303.15 K
x1 = 0.00791	1.08	1	0.93
x1 = 0.08794	1.18	1.08	0.99
x1 = 0.1573	1.27	1.16	1.06
x1 = 0.2443	1.62	1.46	1.35
x1 = 0.3211	2.23	2.02	1.81
x1 = 0.3634	2.66	2.39	2.13
x1 = 0.3926	3.04	2.69	2.4
x1 = 0.419	3.46	3.04	2.67
x1 = 0.4457	3.95	3.45	3.04
x1 = 0.4544	4.19	3.62	3.15
x1 = 0.4895	4.98	4.31	3.73
